Source: patent publication US20230054194A1, “Methods of Treating Cancer” (ARIAGEN, INC., priority 2018, published 2023)

Assays:
MC38 = MC38 subcutaneous syngeneic colon cancer mouse model (Study 1), tumor growth inhibition; format: in vivo, mouse (C57BL/6); conditions: for TGI(%) / Tumor size (Mean ± SEM): MC38 model, i.p., ARI compounds 160 mg/kg QD × 17 doses, Anti-PD-1 10 BIW × 5 doses, study end day Day 26
Procedure: (§1) In this example, the in vivo anti-tumor efficacy of ARI-001, ARI-002, ARI-003, and ARI-143 and their combinations with an anti-PD-1 antibody was evaluated using a panel of twelve subcutaneous syngeneic mouse tumor models.
(§2) Eleven subcutaneous syngeneic mouse tumor models were generated by innoculating female BALB/C or C57BL/6 mice with cancer cells at their right lower or right front flank followed by randomization as detailed in Table 4 below.
(§3) A solution of a rat monoclonal anti-mouse PD-1 antibody (isotype IgG2a, κ) at a concentration of 6.61 mg/ml was obtained from BioXcell (InVivoMAb anti-mouse PD-1 (CD279), Clone RMP1-14, Cat #BE0146)) and store at 4° C. The antibody solution was diluted with PBS to obtain a 1 mg/ml dosing solution.
(§4) ARI-001, ARI-002, and ARI-003 powder was stored at −20° C. The powder of each compound was dissolved in DMSO to obtain dosing solutions at 106.7, 80, and 53.33 mg/ml for administration to mice at 160, 120, and 80 mg/kg, respectively. ARI-143 was similarly prepared.
(§5) Twelve studies using the twelve subcutaneous syngeneic mouse tumor models were performed. In each study, 80 mice were enrolled and randomly allocated to eight different study groups, with 10 mice in each study group. The mean tumor size at randomization was approximately 80-120 mm^3 (around 100 mm^3). Randomization was performed based on “Matched distribution” randomization method (StudyDirector™ software, version 3.1.399.19). […] All the drugs and vehicle controls were injected to the mice intraperitoneally.
(§6) After tumor cell inoculation, the animals were checked daily for morbidity and mortality. At the time of routine monitoring, the animals were checked for any effects of tumor growth and treatments on behavior such as mobility, food and water consumption, body weight gain/loss (body weights were measured twice or three times per week after randomization), and any other abnormalities. Mortality and observed clinical signs were recorded for individual animals. Tumor volumes were measured twice or three times weekly after randomization in two dimensions using a caliper, and the volume was expressed in mm^3 using the formula: […]
(§7) where V is tumor volume, L is tumor length (the longest tumor dimension) and W is tumor width (the longest tumor dimension perpendicular to L).
(§8) The study was terminated when the mean tumor volume (MTV) in the vehicle group reached a value of 2,000 mm^3. Tumor growth inhibition (TGI) is an indication of antitumor activity, and expressed as: […]
(§9) where T and C are the MTV (or weight) of the treated and control groups, respectively, on a given day. Statistical analysis of the difference in MTV among the groups was conducted using the data collected on the day when the MTV of the vehicle group reached the humane endpoints, so that TGI could be derived for all or most mice enrolled in the study.
(§10) Statistical analysis of differences in MTV among the groups was conducted by Independent-Samples T Test using the data collected. All data were analyzed with SPSS (Statistical Product and Service Solutions) version 18.0 (IBM, Armonk, N.Y., U.S.). P-values were rounded to three decimal places, with the exception that raw P-values less than 0.001 were stated as P<0.001. All tests were two-sided. P<0.05 was considered to be statistically significant.
FIG. 60 is a graph showing the mean tumor volume on different study days in the study groups as indicated according to Study 1 (MC38). The study end day was Day 26.

Pan02 = Pan02 subcutaneous syngeneic pancreatic cancer mouse model (Study 3), tumor growth inhibition; format: in vivo, mouse (C57BL/6); conditions: for TGI(%) / Tumor size (Mean ± SEM): Pan02 model, i.p., ARI compounds 160 mg/kg QD × 28 doses, Anti-PD-1 10 BIW × 8 doses, study end day Day 32; for anti-tumor potency of anti-PD-1 antibody combined with the compound, compared to the antibody alone: Pan02 syngeneic pancreatic cancer model
Procedure: as §1, §2, §3, §4, §5, §6, §7, §8, §9, §10
FIG. 62 is a graph showing the mean tumor volume on different study days in the study groups as indicated according to Study 3 (Pan02). The study end day was Day 32.

CT26 = assay: CT-26 subcutaneous syngeneic colon cancer mouse model (Study 4), tumor growth inhibition; format: in vivo, mouse (BALB/C); conditions: for TGI(%) / Tumor size (Mean ± SEM): CT-26 model, i.p., ARI compounds 160 mg/kg QD × 15 doses, Anti-PD-1 10 BIW × 5 doses, study end day Day 23
Procedure: as §1, §2, §3, §4, §5, §6, §7, §8, §9, §10
FIG. 63 is a graph showing the mean tumor volume on different study days in the study groups as indicated according to Study 4 (CT-26). The study end day was Day 23.

A20 = A20 subcutaneous syngeneic lymphoma mouse model (Study 5), tumor growth inhibition; format: in vivo, mouse (BALB/C); conditions: for TGI(%) / Tumor size (Mean ± SEM): A20 model, i.p., ARI compounds 160 mg/kg QD × 14 doses, Anti-PD-1 10 BIW × 4 doses, study end day Day 26
Procedure: as §1, §2, §3, §4, §5, §6, §7, §8, §9, §10
FIG. 64 is a graph showing the mean tumor volume on different study days in the study groups as indicated according to Study 5 (A20). The study end day was Day 26.

LL/2 = LL/2 subcutaneous syngeneic lung cancer mouse model (Study 6), tumor growth inhibition; format: in vivo, mouse (C57BL/6); conditions: for Tumor size / TGI(%): LL/2 model, study end day Day 32; for Tumor size: Mean ± SEM, in mm³; for anti-tumor potency of anti-PD-1 antibody combined with the compound, compared to the antibody alone or the vehicle: LL/2 syngeneic lung cancer model
Procedure: as §1, §2, §3, §4, §5, §6, §7, §8, §9, §10
FIG. 65 is a graph showing the mean tumor volume on different study days in the study groups as indicated according to Study 6 (LL/2). The study end day was Day 32.

RM-1 = RM-1 subcutaneous syngeneic prostate cancer mouse model (Study 7), tumor growth inhibition; format: in vivo, mouse (C57BL/6); conditions: for Tumor size / TGI(%): RM-1 model, study end day Day 19; for Tumor size: Mean ± SEM, in mm³
Procedure: as §1, §2, §3, §4, §5, §6, §7, §8, §9, §10
FIG. 66 is a graph showing the mean tumor volume on different study days in the study groups as indicated according to Study 7 (RM-1). The study end day was Day 19.

B16F10 = B16F10 subcutaneous syngeneic melanoma mouse model (Study 10), tumor growth inhibition; format: in vivo, mouse (C57BL/6); conditions: for Tumor size / TGI(%): B16F10 model, study end day Day 19; for Tumor size: Mean ± SEM, in mm³
Procedure: as §1, §2, §3, §4, §5, §6, §7, §8, §9, §10
FIG. 69 is a graph showing the mean tumor volume on different study days in the study groups as indicated according to Study 10 (B16F10). The study end day was Day 19.

H22 = H22 subcutaneous syngeneic liver cancer mouse model (Study 11), tumor growth inhibition; format: in vivo, mouse (BALB/C); conditions: for Tumor size / TGI(%): H22 model, study end day Day 18; for Tumor size: Mean ± SEM, in mm³
Procedure: as §1, §2, §3, §4, §5, §6, §7, §8, §9, §10
FIG. 70 is a graph showing the mean tumor volume on different study days in the study groups as indicated according to Study 11 (H22). The study end day was Day 18.

[1] = MC38 syngeneic colon cancer model
[2] = RM-1 syngeneic prostate cancer model

SMILES: CCC(=O)c1csc(C(=O)c2c[nH]c3ccccc23)n1 [ARI-002]
- TGI(%) (MC38): 45%
- Tumor size (Mean ± SEM) (MC38): 1419.94 ± 141.48 mm^3
- anti-tumor potency of anti-PD-1 antibody combined with the compound, compared to the antibody alone or the vehicle (MC38; [1]): statistically significant increase
- TGI(%) (Pan02): 66%
- Tumor size (Mean ± SEM) (Pan02): 308.02 ± 177.67 mm^3
- anti-tumor potency of anti-PD-1 antibody combined with the compound, compared to the antibody alone (Pan02): statistically significant increase
- TGI(%) (CT26): 51%
- Tumor size (Mean ± SEM) (CT26): 1112.29 ± 124.36 mm^3
- anti-tumor potency of anti-PD-1 antibody combined with the compound, compared to the antibody alone (CT26; CT-26 syngeneic colon cancer model): statistically significant increase
- TGI(%) (A20): 45%
- Tumor size (Mean ± SEM) (A20): 1446.75 ± 149.90 mm^3
- anti-tumor potency of the compound combined with anti-PD-1 antibody, compared to being used alone (A20; A20 syngeneic lymphoma tumor model): statistically significant increase
- Tumor size (LL/2): 837.75 ± 117.58
- TGI(%) (LL/2): 62%
- anti-tumor potency of anti-PD-1 antibody combined with the compound, compared to the antibody alone or the vehicle (LL/2): statistically significant increase
- Tumor size (RM-1): 1744.11 ± 144.25
- TGI(%) (RM-1): 41%
- anti-tumor potency of anti-PD-1 antibody combined with the compound, compared to the antibody alone (RM-1; [2]): statistically significant increase
- Tumor size (B16F10): 1994.41 ± 180.33
- TGI(%) (B16F10): 32%
- anti-tumor potency of anti-PD-1 antibody combined with the compound, compared to the antibody alone or the vehicle (B16F10; B16F10 syngeneic melanoma model): statistically significant increase
- Tumor size (H22): 1261.07 ± 203.55
- TGI(%) (H22): 44%
- anti-tumor potency of the compound combined with anti-PD-1 antibody, compared to being used alone (H22; H22 syngeneic liver cancer model): statistically significant increase

SMILES: COC(=O)c1csc(C(=O)c2c[nH]c3ccccc23)n1 [ARI-001]
- TGI(%) (MC38): 37%
- Tumor size (Mean ± SEM) (MC38): 1624.33 ± 148.56 mm^3
- anti-tumor potency of anti-PD-1 antibody combined with the compound, compared to the antibody alone or the vehicle (MC38; [1]): statistically significant increase
- anti-tumor potency of the compound combined with anti-PD-1 antibody, compared to being used alone (MC38; [1]): statistically significant increase
- TGI(%) (Pan02): 60%
- Tumor size (Mean ± SEM) (Pan02): 357.19 ± 232.32 mm^3
- anti-tumor potency of anti-PD-1 antibody combined with the compound, compared to the antibody alone (Pan02): statistically significant increase
- TGI(%) (CT26): 56%
- Tumor size (Mean ± SEM) (CT26): 1015.32 ± 114.50 mm^3
- TGI(%) (A20): 55%
- Tumor size (Mean ± SEM) (A20): 1190.08 ± 205.09 mm^3
- Tumor size (LL/2): 881.1 ± 93.59
- TGI(%) (LL/2): 60%
- anti-tumor potency of anti-PD-1 antibody combined with the compound, compared to the antibody alone or the vehicle (LL/2): statistically significant increase
- Tumor size (RM-1): 1732.55 ± 162.92
- TGI(%) (RM-1): 41%
- anti-tumor potency of anti-PD-1 antibody combined with the compound, compared to the antibody alone (RM-1; [2]): statistically significant increase
- anti-tumor potency of the compound combined with anti-PD-1 antibody, compared to being used alone (RM-1; [2]): statistically significant increase
- Tumor size (B16F10): 2089.97 ± 201.33
- TGI(%) (B16F10): 29%
- Tumor size (H22): 1139.95 ± 207.21
- TGI(%) (H22): 50%
